Key:
C^PDX;R^LSL;F mice = assay: CA19-9 mediated pancreatitis in Dox-treated C^PDX;R^LSL;F mice (H&E, serum amylase and lipase, pEGFR IHC); format: in vivo, mouse
Experimental: All animal experiments were conducted in accordance with procedures approved by the IACUC at Cold Spring Harbor Laboratory. Mice were enrolled onto experimental studies between 6 and 8 weeks of age. Mice were administered Doxycycline through drinking water (0.5-2 mg/ml) supplemented with 10 mg/ml Sucrose for study durations up to one week. […] EdU (300 μg, Santa Cruz) was intraperitoneally administered bi-daily for three consecutive days. Cerulein was administered in 8 hourly doses of 200 μl (10 μg/ml) intraperitoneally for 48 hours and C57Bl/6J mice were allowed to recover for 24 or 72 hours.
Formalin-fixed, paraffin-embedded blocks were sectioned and de-paraffinized. Antigen retrieval was performed in Citrate buffer for 6 minutes in a pressure cooker unless otherwise specified. […] The slides were then rinsed in tap water and transferred to the Cadenza system. Slides were blocked in 3% BSA in TBST for one hour at room temperature and incubated in primary antibody overnight. Slides were washed three times in TBST, then incubated in horse radish peroxidase-conjugated secondary antibody for one hour at room temperature. The slides were washed three times in TBST and disassembled from the Cadenza system. ImmPACT DAB (Vector) was incubated for 1-10 minutes followed by a water wash and incubation in Hematoxylin counterstain. The slides were then dehydrated and coverslipped in cytoseal 60.
Slides were scanned using an Aperio CS2 scanner (Leica) and the total occupied pixel area was calculated in Imagescope (Leica). Affected pancreatitis areas on H&E stained slides were manually annotated and the uninvolved and affected areas were measured. Pancreatitis areas were defined by the presence of infiltrating lymphocytes, acinar intralobular swelling, acinar to ductal metaplasia, fibrosis and fat cell replacement. The number of Ki67-positive nuclei were counted manually in five representative high-powered fields from least four animals per group.
Amylase and Lipase levels in plasma (lithium heparin, BD biosciences) was measured by IDEXX Pathology services. CA19-9 levels were measured using the human cancer biomarker assay (EMD Millipore) on the MagPIX multiplex ELISA platform (Luminex). Blood glucose levels were measured using an Accu-Chek Nano monitor (Roche) on the lateral saphenous vein. […] The CA19-9 coated plates were washed in 0.05% Tween 20 in PBS and blocked in 1% BSA in wash buffer before incubation 10 μl of mouse plasma in a final volume of 100 μl of blocking buffer

C57Bl/6J mice [1] = format: in vivo; conditions: Sucrose or Dox Sucrose, Vehicle or Erlotinib
Experimental: KPC mice (Kras^+/LSL-G12D; Trp53^+/R172H; Pdx1-Cre) have been described previously (Hingorani S R, et al., Cancer Cell. 2003; 4(6):437-50; Hingorani S R, et al., Cancer Cell. 2005; 7(5):469-83) and were backcrossed onto the C57Bl/6J background (The Jackson Laboratory, strain 000664). All animal experiments were conducted in accordance with procedures approved by the IACUC at Cold Spring Harbor Laboratory. Mice were enrolled onto experimental studies between 6 and 8 weeks of age. Mice were administered Doxycycline through drinking water (0.5-2 mg/ml) supplemented with 10 mg/ml Sucrose for study durations up to one week. Doxycycline was administered through chow for experimental studies longer than one week, which is designed to deliver 2-3 mg of doxycycline per day based on the consumption of 4-5 g/day per mouse (Harlan Teklad, dietTD.01306, Doxycycline 625 mg). […] Blood glucose levels were measured using the ACCU-CHECK Nano (Roche) on the 414 lateral saphenous vein.
Amylase and Lipase levels in plasma (lithium heparin, BD biosciences) was measured by IDEXX Pathology services. CA19-9 levels were measured using the human cancer biomarker assay (EMD Millipore) on the MagPIX multiplex ELISA platform (Luminex). Blood glucose levels were measured using an Accu-Chek Nano monitor (Roche) on the lateral saphenous vein. […]

C57Bl/6J mice [2] = assay: Cerulein model of acute pancreatitis, immune cell types by flow cytometry; format: in vivo, mouse; conditions: for immune cell type representation in the spleen or lymph nodes / immune cells in the pancreas following induction of pancreatitis: flow cytometry
Experimental: KPC mice (Kras^+/LSL-G12D; Trp53^+/R172H; Pdx1-Cre) have been described previously (Hingorani S R, et al., Cancer Cell. 2003; 4(6):437-50; Hingorani S R, et al., Cancer Cell. 2005; 7(5):469-83) and were backcrossed onto the C57Bl/6J background (The Jackson Laboratory, strain 000664). All animal experiments were conducted in accordance with procedures approved by the IACUC at Cold Spring Harbor Laboratory. Mice were enrolled onto experimental studies between 6 and 8 weeks of age. Mice were administered Doxycycline through drinking water (0.5-2 mg/ml) supplemented with 10 mg/ml Sucrose for study durations up to one week. Doxycycline was administered through chow for experimental studies longer than one week, which is designed to deliver 2-3 mg of doxycycline per day based on the consumption of 4-5 g/day per mouse (Harlan Teklad, dietTD.01306, Doxycycline 625 mg). EdU (300 μg, Santa Cruz) was intraperitoneally administered bi-daily for three consecutive days. Cerulein was administered in 8 hourly doses of 200 μl (10 μg/ml) intraperitoneally for 48 hours and C57Bl/6J mice were allowed to recover for 24 or 72 hours. Blood glucose levels were measured using the ACCU-CHECK Nano (Roche) on the 414 lateral saphenous vein.
Spleens and lymph nodes were mechanically dissociated, homogenized, and passed through a nylon cell strainer (BD Falcon) in FACS buffer (eBioscience). Pancreas were mechanically dissociated and digested with 0.4 mg/mL liberase, 0.05 mg/mL collagenase D, and 0.1 mg/mL DNase I (Roche) in DMEM (Gibco) supplemented with 10% FCS at 37° C. for 30 min and suspensions were passed through a nylon cell strainer.
Staining was performed by incubating cells on a plate shaker, for 15 min at 4° C., with antibodies in FACS buffer (eBioscience). Multicolor flow cytometric analyses were performed using a LSR Fortessa cytometer (BD Biosciences). Gating strategies for all flow cytometric experiments are further described below.

Row | Compound | ability to substitute for anti-CA19-9 therapy (C^PDX;R^LSL;F mice; Erlotinib 24 hours prior to the induction of pancreatitis) | weight loss (C^PDX;R^LSL;F mice; Erlotinib 24 hours prior to the induction of pancreatitis, humane end point prior to study completion) | pancreatic atrophy at necropsy (C^PDX;R^LSL;F mice; Erlotinib plus Dox) | vacuolization of the acinar compartment by histology (C^PDX;R^LSL;F mice; Erlotinib plus Dox) | relation of the effects to Erlotinib toxicity in normal mice (C57Bl/6J mice [1]) | immune cell type representation in the spleen or lymph nodes (C57Bl/6J mice [2]) | immune cells in the pancreas following induction of pancreatitis (C57Bl/6J mice [2]) | immune cell type representation in the spleen or lymph nodes (C57Bl/6J mice [2]; listed as cerulein) | immune cells in the pancreas following induction of pancreatitis (C57Bl/6J mice [2]; listed as cerulein) | recruitment of T- or B-cells (C57Bl/6J mice [2]; time points examined 1-3 days)
1 | C#Cc1cccc(Nc2ncnc3cc(OCCOC)c(OCCOC)cc23)c1 [Erlotinib] | unable to substitute | more than 20% | evident | apparent | unrelated to toxicity |  |  |  |  | 
2 | Cerulein |  |  |  |  |  | without change | influx of inflammatory monocytes and macrophages | without any change | treatment-dependent influx of inflammatory monocytes and macrophages | Neither model exhibited recruitment

Reference: US12378320B2, “Methods for treating pancreatitis” (Cold Spring Harbor Laboratory, priority 2018, dated 2025)
